Results: EP0214862A2, “Anti-tumour platinum complexes, their preparation and their use” (priority 1985, dated 1987)

Columns and labels:
[1] = system: L1210 cells; assay: Anti-tumour activity against L1210 leukemia inoculated intraperitoneally in mice (Experiment 1); format: in vivo; details: L1210, CDF1 mice
Experimental: In the following experiments, the test animals used were 8 to 9 week old female mice of the CDF1 strain, each weighing 20-25 g.
(§1) CDF1 mice were inoculated intraperitoneally with L1210 cells ([…]). […] Each drug was injected intraperitoneally on days 1 and 4 following tumour implantation. The number of mice in each test group was 6.
(§2) The increase in life span (ILS) was calculated as follows: • ILS% = [(St/Su) - 1] x 100 • in which: • St = weighted median number of days survival of treated mice; and • Su = weighted median number of days survival of untreated mice.

[2] = system: cisplatin-resistant L1210/CDDP cells; assay: Anti-tumour activity against cisplatin-resistant L1210/CDDP leukemia in mice (Experiment 2); format: in vivo
Source text: (§3) In the following experiments, the test animals used were 8 to 9 week old female mice of the CDF1 strain, each weighing 20-25 g. The standard L1210 leukemia cells were supplied by Dr. T. Yamamoto of the Institute of Medical Science, University of Tokyo, Japan, whilst the cisplatin-resistant L1210 cell line (L1210/CDDP) was supplied by Dr. T. Tashiro of the Cancer Chemotherapy Centre, Japanese Foundation for Cancer Research, Tokyo, Japan.
as §1, §2
The procedures described in Experiment 1 were repeated exactly, except that the tumour cells were cisplatin-resistant L1210/CDDP cells.

[3] = system: cisplatin-resistant L1210 cell line (L1210/CDDP); assay: In vitro sensitivity of the cisplatin-resistant cell line versus parent L1210; format: cell-based, mouse; details: L1210/CDDP relative to the parent L1210 cell line
Source text: as §3

[4] = Dose 5 mg/kg intraperitoneally on days 1 and 4
[5] = Dose 10 mg/kg intraperitoneally on days 1 and 4
[6] = Dose 20 mg/kg intraperitoneally on days 1 and 4
[7] = Dose 40 mg/kg intraperitoneally on days 1 and 4
[8] = Dose 80 mg/kg intraperitoneally on days 1 and 4
[9] = Dose 5 mg/kg intraperitoneally on days 1 and 4, CDF1 mice
[10] = Dose 0.625 mg/kg intraperitoneally on days 1 and 4
[11] = Dose 1.25 mg/kg intraperitoneally on days 1 and 4
[12] = Dose 2.5 mg/kg intraperitoneally on days 1 and 4
[13] = Dose 2.5 mg/kg intraperitoneally on days 1 and 4, CDF1 mice
[14] = Dose 30 mg/kg intraperitoneally on days 1 and 4, CDF1 mice
[15] = Dose 60 mg/kg intraperitoneally on days 1 and 4, CDF1 mice

Compound: C1CCC2[NH][Pt-2]3([NH]C2C1)[O]C1=[N+](CCN1)[Pt-2]1([NH2+]C2CCCCC2[NH2+]1)[OH+]3 (stereo not drawn) [Example 1, Hydroxo(ethyleneurea-N,O)-bis(cis-(trans-(ℓ)-1,2-diaminocyclohexane)platinum (II)] nitrate]
- Wt. Change (Change in body weight from day 1 to day 7) [1, 4]: +2.6 g
- Wt. Change (Change in body weight from day 1 to day 7) [1, 5]: +2.8 g
- Wt. Change (Change in body weight from day 1 to day 7) [1, 6]: +2.2 g
- Wt. Change (Change in body weight from day 1 to day 7) [1, 7]: +0.4 g
- Wt. Change (Change in body weight from day 1 to day 7) [1, 8]: +0.2 g
- Wt. Change (Change in body weight from day 1 to day 7) ([1]; Dose 160 mg/kg intraperitoneally on days 1 and 4): -3.0 g
- toxic (number of mice) ([1]; Dose 240 mg/kg intraperitoneally on days 1 and 4): - (2/6, toxic)
- toxic (number of mice) ([1]; Dose 320 mg/kg intraperitoneally on days 1 and 4): - (5/6, toxic)
- Body weight change from days 1 to 7 [2, 9]: +2.4
- Body weight change from days 1 to 7 ([2]; Dose 10 mg/kg intraperitoneally on days 1 and 4, CDF1 mice): +2.3
- Body weight change from days 1 to 7 ([2]; Dose 20 mg/kg intraperitoneally on days 1 and 4, CDF1 mice): +2.2
- Body weight change from days 1 to 7 ([2]; Dose 40 mg/kg intraperitoneally on days 1 and 4, CDF1 mice): -0.3
- Body weight change from days 1 to 7 ([2]; Dose 80 mg/kg intraperitoneally on days 1 and 4, CDF1 mice): -0.5
- Body weight change from days 1 to 7 ([2]; Dose 160 mg/kg intraperitoneally on days 1 and 4, CDF1 mice): -1.8

Compound: N.N.[Cl][Pt][Cl] [cisplatin]
- degree of cisplatin resistance in terms of in vitro sensitivity [3]: 40 fold
- ILS (Increase in life span) [1, 10]: 8%
- Med.S.T. (Median survival time) [1, 10]: 9.1 days
- Survivors on day 42 [1, 10]: 0/6
- Wt. Change (Change in body weight from day 1 to day 7) [1, 10]: +1.6 g
- ILS (Increase in life span) [1, 11]: 15%
- Med.S.T. (Median survival time) [1, 11]: 9.7 days
- Survivors on day 42 [1, 11]: 0/6
- Wt. Change (Change in body weight from day 1 to day 7) [1, 11]: +2.5 g
- ILS (Increase in life span) [1, 12]: 58%
- Med.S.T. (Median survival time) [1, 12]: 13.3 days
- Survivors on day 42 [1, 12]: 0/6
- Wt. Change (Change in body weight from day 1 to day 7) [1, 12]: +1.7 g
- ILS (Increase in life span) [1, 4]: 364%
- Med.S.T. (Median survival time) [1, 4]: 39.0 days
- Survivors on day 42 [1, 4]: 2/6
- Wt. Change (Change in body weight from day 1 to day 7) [1, 4]: -3.5 g
- ILS (Increase in life span) [1, 5]: 23%
- Med.S.T. (Median survival time) [1, 5]: 10.3 days
- Survivors on day 42 [1, 5]: 0/6
- Wt. Change (Change in body weight from day 1 to day 7) [1, 5]: -5.5 g
- 30-day survivors [2, 13]: 0/5
- Body weight change from days 1 to 7 [2, 13]: +1.0
- ILS(%) [2, 13]: 2%
- Median survival days [2, 13]: 9.3 days
- 30-day survivors [2, 9]: 0/6
- Body weight change from days 1 to 7 [2, 9]: -1.9
- ILS(%) [2, 9]: 9%
- Median survival days [2, 9]: 9.9 days

Compound: carboplatin
- ILS (Increase in life span) [1, 4]: 7%
- Med.S.T. (Median survival time) [1, 4]: 9.0 days
- Survivors on day 42 [1, 4]: 0/6
- Wt. Change (Change in body weight from day 1 to day 7) [1, 4]: +1.3 g
- ILS (Increase in life span) [1, 5]: 7%
- Med.S.T. (Median survival time) [1, 5]: 9.0 days
- Survivors on day 42 [1, 5]: 0/6
- Wt. Change (Change in body weight from day 1 to day 7) [1, 5]: +2.0 g
- ILS (Increase in life span) [1, 6]: 7%
- Med.S.T. (Median survival time) [1, 6]: 9.0 days
- Survivors on day 42 [1, 6]: 0/6
- Wt. Change (Change in body weight from day 1 to day 7) [1, 6]: +0.8 g
- ILS (Increase in life span) [1, 7]: 10%
- Med.S.T. (Median survival time) [1, 7]: 9.2 days
- Survivors on day 42 [1, 7]: 0/6
- Wt. Change (Change in body weight from day 1 to day 7) [1, 7]: +0.4 g
- ILS (Increase in life span) [1, 8]: 23%
- Med.S.T. (Median survival time) [1, 8]: 10.3 days
- Survivors on day 42 [1, 8]: 0/6
- Wt. Change (Change in body weight from day 1 to day 7) [1, 8]: -0.5 g
- 30-day survivors [2, 14]: 0/6
- Body weight change from days 1 to 7 [2, 14]: +1.2
- ILS(%) [2, 14]: 9%
- Median survival days [2, 14]: 9.9 days
- 30-day survivors [2, 15]: 0/6
- Body weight change from days 1 to 7 [2, 15]: -0.6
- ILS(%) [2, 15]: 8%
- Median survival days [2, 15]: 9.8 days
